According to PMC4612778, “Limonoids from Melia azedarach Fruits as Inhibitors of Flaviviruses and Mycobacterium tubercolosis” (PLoS ONE, 2015):
≈ marks a conversion by molar mass, not a printed value. Entries after “also recorded” stand apart in the source; their conditions may differ. Read-outs that look alike come from different tables or passages of the source.

How the values were obtained:
HIV-1 IIIB = experiment: microbe, parasite or virus in culture; format: cell-based, Human Immunodeficiency Virus type-1
WNV [1] = experiment: Adsorption assay; format: cell-based, west nile virus; conditions: BHK cells, m.o.i. 1, 0-60 min at 4°C; 15μM for 4, 20μM for 5
DENV-2 = experiment: microbe, parasite or virus in culture; format: cell-based, dengue virus
WNV [2] = format: cell-based, west nile virus; conditions: for Cell viability, addition at 1, 2, 4 or 8 hours post-infection: 15 μM for 4, 20 μM for 5
[3] = tested on: M. tuberculosis H37Ra ATCC 25177; experiment: microbe, parasite or virus in culture; format: cell-based, Mycobacterium tuberculosis
WNV [4] = experiment: microbe, parasite or virus in culture; format: cell-based, west nile virus
WNV [5] = experiment: microbe, parasite or virus in culture; format: cell-based, west nile virus; remark: listed apart in the source
WNV [6] = experiment: Virucidal activity assay; format: cell-based, west nile virus; conditions: 45 min at 37°C, 6 and 20μM for 4, 20 and 50μM for 5
YFV = experiment: microbe, parasite or virus in culture; format: cell-based, yellow fever virus
BVDV = experiment: microbe, parasite or virus in culture; format: cell-based, bovine viral diarrhoea virus; conditions: read-out: EC50 BVDV
Reo-1 = experiment: microbe, parasite or virus in culture; format: cell-based, reovirus type-1
[7] = tested on: human lung adenocarcinoma epithelial cell line A549; conditions: previous studies; cited from earlier work
WNV [8] = experiment: Yield reduction assay; format: cell-based, west nile virus; conditions: BHK-21, m.o.i. 0.1, 72 hrs, 15μM for 4, 20 μM for 5
HSV-1 = experiment: microbe, parasite or virus in culture; format: cell-based, human herpes 1
[9] = tested on: West Nile virus, Dengue virus and Yellow Fever virus; format: cell-based, Flaviviridae; conditions: read-out: EC50 range against West Nile virus, Dengue virus and Yellow Fever virus
in vitro [10] = conditions: African green monkey (Cercopithecus aethiops)
in vitro [11] = conditions: cattle (Bos taurus)
in vitro [12] = conditions: hamster (Mesocricetus auratus)
in vitro [13] = conditions: human
M. tuberculosis = conditions: against M. tuberculosis; cited from earlier work
[14] = Human alphaherpesvirus 1, Vero 76, read-out: EC50 HSV-1
[15] = Yellow fever virus, BHK-21, read-out: EC50 YFV
[16] = Bovine viral diarrhea virus isolates and strains, MDBK, in Bos taurus
[17] = Reovirus sp., BHK-21, read-out: EC50 Reo-1
[18] = Human immunodeficiency virus 1, IIIB, MT4, read-out: EC50 HIV-1IIIB
[19] = Mycobacterium tuberculosis, 672 h

CC1(C)O[C@H]1[C@H]1C[C@@H]([C@@H]2CC[C@]3(C)C4=CC[C@H]5C(C)(C)C(=O)CC[C@]5(C)[C@H]4CC[C@@]23C)[C@H](O)O1 [Compound 5, melianone]
EC50 (HIV-1 IIIB; read-out: EC50 HIV-1IIIB): > 100 µM
CC50 (MDBK cells): 16 µM
WNV adsorption (virus titre) (WNV [1]): doesn’t reduce the virus titre
CC50 (Vero-76 cells): 51 µM
EC50 (DENV-2; read-out: EC50 DENV-2): 12 µM
Cell viability, addition during the infection (WNV [2]): increases the cell viability
Cell viability, pretreatment (WNV [2]): does not increase the cells viability
Cell viability, addition at 1, 2, 4 or 8 hours post-infection (WNV [2]): not more able to protect BHK-21 cells; also recorded: not more able to significantly increase the cell viability
MIC [3]: >136 µM
EC50 (WNV [4]; read-out: EC50 WNV 2hrs p.i.): > 50 µM
EC50 (WNV [4]; read-out: EC50 WNV d. i.): 6.1 µM
EC50 (WNV [5]; read-out: EC50 WNV): 11 µM
Virucidal activity (WNV infectivity) (WNV [6]): failed to affect the WNV infectivity
Virucidal activity (WNV infectivity) (WNV [6]; listed as melianone): doesn’t affect the WNV infectivity
EC50 (YFV; read-out: EC50 YFV): 3 µM
EC50 (BVDV): > 16 µM
EC50 (Reo-1; read-out: EC50 Reo-1): > 50 µM
Cytotoxicity towards A549 [7]: exhibit cytotoxicity
Reduction of WNV titre (yield reduction) (WNV [8]): a reduction of virus titre was observed
Reduction of WNV titre (yield reduction) (WNV [8]; listed as melianone): Reduction of WNV titre
CC50 (MT-4 cells): > 100 µM
CC50 (BHK-21 cells): 50 µM
Cytopathic effects on BHK-21 monolayers (BHK-21 cells): did not show significant cytopathic effects
EC50 (HSV-1; read-out: EC50 HSV-1): 20 µM
EC50 [9]: 3 to 11 µM

Nc1nc2c(ncn2COCCO)c(=O)[nH]1 [Acycloguanosine, reference compound]
CC50 (in vitro [10]): > 100 µM
EC50 (HSV-1; [14]): 3 µM

C[C@@]1(O)[C@H](O)[C@@H](CO)O[C@H]1n1cnc2c(=O)[nH]c(N)nc21 [2’-C-methyl-guanosine, reference compound]
CC50 (in vitro [11]): > 100 µM
EC50 (DENV-2; Dengue virus, DENV2, BHK-21, read-out: EC50 DENV-2): 1.4 µM
Cell viability, addition during the infection (WNV [2]): increases the cell viability
EC50 (WNV [4]; West Nile virus, BHK-21, 2 h, read-out: EC50 WNV 2hrs p.i.): 1 µM
EC50 (WNV [4]; West Nile virus, BHK-21, read-out: EC50 WNV d. i.): 1 µM
EC50 (WNV [5]; West Nile virus, BHK-21, read-out: EC50 WNV): 1 µM
EC50 (YFV; [15]): 1.4 µM
EC50 (BVDV; [16]): 2 µM
EC50 (Reo-1; [17]): 1 µM
Cytopathic effects on BHK-21 monolayers (BHK-21 cells): did not show significant cytopathic effects
CC50 (in vitro [12]): 80 µM

COC(=O)[C@H](CCC=C(C)C)[C@@H]1[C@@H](O)C[C@]2(C)C3=CC[C@H]4C(C)(C)C(=O)CC[C@]4(C)[C@H]3CC[C@@]12C [Compound 2, methyl kulonate]
EC50 (HIV-1 IIIB; [18]): > 35 µM
CC50 (in vitro [11]): 85 µM
MIC [3, 19]: 70 µM (≈ 33.9 µg/mL)
CC50 (in vitro [10]): 100 µM
EC50 (YFV; [15]): > 100 µM
EC50 (BVDV; [16]): > 85 µM
CC50 (in vitro [13]): 35 µM
EC50 (Reo-1; [17]): > 100 µM
Cytotoxicity towards A549 [7]: exhibit cytotoxicity
EC50 (HSV-1; [14]): > 100 µM
CC50 (in vitro [12]): > 100 µM

C/C=C(\C)C(=O)O[C@@H]1CC[C@]2(C)[C@H]3CC[C@@]4(C)[C@@H]([C@@H]5C[C@H]([C@@H]6OC6(C)C)O[C@H]5O)CC[C@]4(C)C3=CC[C@H]2C1(C)C [Compound 4, 3-α-tigloyl-melianol]
EC50 (HIV-1 IIIB; read-out: EC50 HIV-1IIIB): > 27 µM
CC50 (MDBK cells): 37 µM
WNV adsorption (virus titre) (WNV [1]): doesn’t reduce the virus titre
CC50 (Vero-76 cells): 100 µM
EC50 (DENV-2; read-out: EC50 DENV-2): 3 µM
Cell viability, addition during the infection (WNV [2]): increases the cell viability
Cell viability, pretreatment (WNV [2]): does not increase the cells viability
Cell viability, addition at 1, 2, 4 or 8 hours post-infection (WNV [2]): not more able to protect BHK-21 cells; also recorded: not more able to significantly increase the cell viability
MIC [3]: 29 µM (≈ 16.1 µg/mL)
EC50 (WNV [4]; read-out: EC50 WNV 2hrs p.i.): > 20 µM
EC50 (WNV [4]; read-out: EC50 WNV d. i.): 3.5 µM
EC50 (WNV [5]; read-out: EC50 WNV): 3 µM
Virucidal activity (WNV infectivity) (WNV [6]): failed to affect the WNV infectivity
Virucidal activity (WNV infectivity) (WNV [6]; listed as 3-tigloyl-melianol): doesn’t affect the WNV infectivity
Cytotoxicity against Vero cells (Vero cells): > 500 µM
EC50 (YFV; read-out: EC50 YFV): 7 µM
EC50 (BVDV): > 37 µM
EC50 (Reo-1; read-out: EC50 Reo-1): > 20 µM
Cytotoxicity towards A549 [7]: exhibit cytotoxicity
Reduction of WNV titre (yield reduction) (WNV [8]): a reduction of virus titre was observed
CC50 (MT-4 cells): 27 µM
CC50 (BHK-21 cells): 20 µM
Cytopathic effects on BHK-21 monolayers (BHK-21 cells): did not show significant cytopathic effects
EC50 (HSV-1; read-out: EC50 HSV-1): > 100 µM
EC50 [9]: 3 to 11 µM

O=C1Nc2ccc(Cl)cc2[C@@](C#CC2CC2)(C(F)(F)F)O1 [Efavirenz, reference compound]
EC50 (HIV-1 IIIB; [18]): 0.002 µM
CC50 (in vitro [13]): 40 µM

21-β-acetoxy-melianone [Compound 3]
EC50 (HIV-1 IIIB; read-out: EC50 HIV-1IIIB): > 23 µM
CC50 (MDBK cells): 22 µM
CC50 (Vero-76 cells): 36 µM
MIC (M. tuberculosis): 16 µg/mL
EC50 (YFV; read-out: EC50 YFV): > 10 µM
EC50 (BVDV): > 22 µM
EC50 (Reo-1; read-out: EC50 Reo-1): > 10 µM
Cytotoxicity towards A549 [7]: exhibit cytotoxicity
CC50 (MT-4 cells): 23 µM
CC50 (BHK-21 cells): 10 µM
EC50 (HSV-1; read-out: EC50 HSV-1): > 36 µM

NNC(=O)c1ccncc1 [Isoniazid, reference compound]
MIC [3, 19]: 0.45 µM (≈ 0.0617 µg/mL)
